Reference: US7491819B1 (priority 2004, dated 2009)
pEC50: −log10 of the molar value.

Tested on: HIV-1 303B
Assay: microbe, parasite or virus in culture
Format: cell-based
Details: for pEC50: Human immunodeficiency virus 1, MT2, 120 h; for overall antiviral effect of the two-drug combination with Example 19 (in words): classification from combination indices and confidence intervals; for Combination Indices at 50% HIV Inhibition (Confidence Interval) / Combination Indices at 75% HIV Inhibition (Confidence Interval) / Combination Indices at 90% HIV Inhibition (Confidence Interval): in combination with Example 19, 95% CI in parenthesis
Description: Virus and cell lines. The T-cell line, MT-2, was obtained through the AIDS Research and Reference Reagent Program. MT-2 cells were sub-cultured twice a week in RPMI 1640 medium supplemented with 10% fetal bovine serum, 2 mM L-glutamine, and 10 mM HEPES buffer pH 7.5. The HIV-1303B virus is a molecular clone derived from the NL4-3 strain of HIV-1 that was obtained from the NIH AIDS Research and Reference Reagent Program. For combinations with enfuvirtide, the NL36G virus was used. […] Virus stocks were made by transfecting 293T cells with a proviral DNA clone using LipofectAMINE PLUS (Invitrogen), according to the manufacturer's instructions. Three days post-transfection, virus was harvested and passaged once in MT-2 cells before titration in MT-2 cells.
Chemicals. Example 19, atazanavir, didanosine, stavudine, efavirenz, and enfuvirtide (T-20) were synthesized by Bristol-Myers Squibb using published or known reactions. […] Tenofovir was tested as tenofovir disopoxil fumarate. Zidovudine and zalcitabine were purchased from Sigma, and emtricitabine from Moravek Biochemicals.
Drug Susceptibility and Cytotoxicity Assays. For drug susceptibility assays, MT-2 cells were infected with HIV-1 303B (or NL36G), at an MOI of 0.001, and seeded into 96-well microtiter plates (2.5×10^5 cells/ml) containing serial dilutions of test compounds. […] Each drug ratio consisted of an array of 3-fold serial dilutions, and was performed with eight or more replicas on separate multi-well plates. HIV infected cells were incubated at 37° C. in 5% CO2, and on day five post-infection, the extent of virus replication was measured by determining cell viability using the CellTiter 96 Aqueous Non-Radioactive Cell Proliferation Assay (Promega). […] Cytotoxicity assays were performed in parallel with the combination experiments. Here, uninfected cells were exposed to the same drug combinations, and assayed after five days for cell viability using the MTS assay.
Analysis of Drug Combination Effects. For determination of combination index (CI) values, drugs were diluted in a fixed ratio and multiple ratios were analyzed. The drug serial dilutions spanned a range of concentrations near the EC50 value of each compound, so that equivalent antiviral activities could be compared. The normalized responses from each therapy are fit to the four-parameter logistic model with a common minimum and maximum across all therapies. Conceptually, this equation can be written as
In this equation, Fa stands for “fraction affected,” and represents the fraction of the viral load that has been inactivated. […] The EC50, represented by the Ci in the above equation, is the drug concentration that is expected to reduce the amount of virus by 50%, and the Bi are the parameters that reflects the slope of the concentration-response curve. For this assay, A is the bottom plateau common to all curves, D is the common top plateau, Bj is the “slope” parameter for the jth therapy, and Cj is the concentration that produces an effect equal to the average of A and D for the jth therapy. Therapies 1 and 2 correspond to mono therapies 1 and 2, respectively. Therapies 3, 4, and 5 correspond to the three combination therapies. EC50 values for each drug were determined from the single drug experiments, using the above equation. The equation was fit using a nonlinear regression routine (Proc Nlin) in PC SAS version 8.2 (SAS Institute Inc.).
To assess antiviral effects of different drug combination treatments, combination indices (CIs) were calculated according to Chou and Rideout. The combination index was computed as
In this equation [Dm]1 and [Dm]2 are the concentrations of drugs that would individually produce a specific level of effect, while [D]1 and [D]2 are the concentrations of drugs in combination that would produce the same level of effect.
Theoretically, additivity is implied if the CI is equal to one, synergy if the CI is less than one, and antagonism if the CI is greater than one.

[1] = EC50 ratio Example 19:comparator 1:1
[2] = EC50 ratio Example 19:comparator 1:2.5
[3] = EC50 ratio Example 19:comparator 2.5:1

SMILES | pEC50 | overall antiviral effect of the two-drug combination with Example 19 (in words) | Combination Indices at 50% HIV Inhibition (Confidence Interval) [1] | Combination Indices at 75% HIV Inhibition (Confidence Interval) [1] | Combination Indices at 90% HIV Inhibition (Confidence Interval) [1] | Combination Indices at 50% HIV Inhibition (Confidence Interval) [2] | Combination Indices at 75% HIV Inhibition (Confidence Interval) [2] | Combination Indices at 90% HIV Inhibition (Confidence Interval) [2] | Combination Indices at 50% HIV Inhibition (Confidence Interval) [3] | Combination Indices at 75% HIV Inhibition (Confidence Interval) [3] | Combination Indices at 90% HIV Inhibition (Confidence Interval) [3]
Nc1ccn([C@H]2CC[C@@H](CO)O2)c(=O)n1 [Zalcitabine, zalcitabine] | 6.91 | synergistic to additive | 0.61 (0.48, 0.73) | 0.56 (0.39, 0.73) | 0.53 (0.28, 0.79) | 0.55 (0.44, 0.66) | 0.40 (0.31, 0.49) | 0.30 (0.18, 0.42) | 0.80 (0.62, 0.97) | 0.82 (0.58, 1.07) | 0.86 (0.46, 1.26)
O=c1[nH]cnc2c1ncn2[C@H]1CC[C@@H](CO)O1 [Didanosine, didanosine] | 4.97 | synergistic | 0.58 (0.53, 0.63) | 0.47 (0.35, 0.60) | 0.39 (0.22, 0.56) | 0.56 (0.51, 0.62) | 0.46 (0.40, 0.52) | 0.38 (0.32, 0.44) | 0.50 (0.46, 0.54) | 0.49 (0.44, 0.53) | 0.48 (0.42, 0.54)
CC(C)Nc1cccnc1N1CCN(C(=O)c2cc3cc(NS(C)(=O)=O)ccc3[nH]2)CC1 [Delavirdine, delavirdine] | 7.37 |  | 0.76 (0.64, 0.89) | 0.60 (0.47, 0.74) | 0.48 (0.31, 0.64) | 0.68 (0.58, 0.77) | 0.44 (0.32, 0.54) | 0.28 (0.17, 0.39) | 0.80 (0.68, 0.92) | 0.53 (0.42, 0.63) | 0.35 (0.25, 0.45)
Nc1nc(NC2CC2)c2ncn([C@H]3C=C[C@@H](CO)C3)c2n1 [Abacavir, abacavir] | 5.98 | synergistic | 0.68 (0.59, 0.76) | 0.67 (0.56, 0.79) | 0.67 (0.49, 0.84) | 0.87 (0.77, 0.97) | 0.74 (0.63, 0.85) | 0.63 (0.50, 0.77) | 0.86 (0.76, 0.96) | 0.82 (0.68, 0.96) | 0.79 (0.58, 0.99)
Nc1nc(=O)n([C@@H]2CS[C@H](CO)O2)cc1F [Emtricitabine, emtricitabine] | 7.28 | synergistic | 0.31 (0.27, 0.36) | 0.23 (0.18, 0.28) | 0.18 (0.12, 0.24) | 0.31 (0.26, 0.37) | 0.23 (0.19, 0.29) | 0.17 (0.12, 0.28) | 0.33 (0.28, 0.38) | 0.25 (0.20, 0.30) | 0.19 (0.13, 0.25)
CC(C)(C)NC(=O)[C@@H]1CN(Cc2cccnc2)CCN1C[C@@H](O)C[C@@H](Cc1ccccc1)C(=O)N[C@H]1c2ccccc2C[C@H]1O [Indinavir, indinavir] | 7.59 | additive relationship with Example 19 cannot be ruled out | 0.86 (0.80, 0.92) | 0.71 (0.62, 0.81) | 0.60 (0.46, 0.73) | 0.92 (0.84, 0.99) | 0.84 (0.76, 0.92) | 0.77 (0.66, 0.89) | 0.94 (0.87, 1.02) | 0.79 (0.71, 0.87) | 0.67 (0.57, 0.77)
O=C1Nc2ccc(Cl)cc2[C@@](C#CC2CC2)(C(F)(F)F)O1 [Efavirenz, efavirenz] | 8.80 | synergism at most effective concentrations and molar ratios | 0.83 (0.75, 0.92) | 0.76 (0.64, 0.88) | 0.70 (0.54, 0.85) | 0.95 (0.86, 1.04) | 0.93 (0.85, 1.02) | 0.93 (0.79, 1.06) | 1.01 (0.92, 1.10) | 0.96 (0.83, 1.10) | 0.94 (0.73, 1.14)
Cc1cn([C@H]2C=C[C@@H](CO)O2)c(=O)[nH]c1=O [Stavudine, stavudine] | 6.62 | synergistic | 0.52 (0.43, 0.61) | 0.46 (0.36, 0.56) | 0.42 (0.26, 0.57) | 0.60 (0.48, 0.71) | 0.60 (0.46, 0.74) | 0.61 (0.40, 0.83) | 0.70 (0.57, 0.84) | 0.63 (0.48, 0.79) | 0.58 (0.37, 0.81)
